Assay results: patent US20260265329A1, “POLYPEPTIDE AND DERIVATIVE THEREOF, COMPOSITION, AND USE THEREOF” (HANGZHOU SCIWIND BIOSCIENCES CO., LTD., priority 2023, published 2026)
Starred links: 1 amine or outer side, 2 acyl side, 3 side chain; linkers in the order of their positions; H or OH if unused. Non-standard residues stand in square brackets, D forms with d. Residues, ends and D or L forms follow the SMILES beside them. *: point of attachment. C20 diacid = O=C(O)CCCCCCCCCCCCCCCCCCC(=O)*; γGlu = O=C(O)[C@H](CCC(=O)[*:2])N[*:1]; Hyp = O=C(O)[C@@H]1C[C@@H](O)CN1

Columns and labels:
[1] = molecular target: T1, human amylin receptors (Homo sapiens, UniProt O60896+P30988); test: Luciferase assay in stably transfected amylin receptor/CRE-luc CHO cell line; format: cell-based; conditions: for Relative activity: EC50 ratio of Cagrilintide to the compound, Cagrilintide 100%; for EC50: amylin receptor/CRE-luc CHO cells, 24 hours incubation, luminescence
T1 construct: host or cells: CHO-K1/Ga15/AMY3 cells, further stably transfected with a CRE-luciferase plasmid
T1 sequence (P30988 25-474): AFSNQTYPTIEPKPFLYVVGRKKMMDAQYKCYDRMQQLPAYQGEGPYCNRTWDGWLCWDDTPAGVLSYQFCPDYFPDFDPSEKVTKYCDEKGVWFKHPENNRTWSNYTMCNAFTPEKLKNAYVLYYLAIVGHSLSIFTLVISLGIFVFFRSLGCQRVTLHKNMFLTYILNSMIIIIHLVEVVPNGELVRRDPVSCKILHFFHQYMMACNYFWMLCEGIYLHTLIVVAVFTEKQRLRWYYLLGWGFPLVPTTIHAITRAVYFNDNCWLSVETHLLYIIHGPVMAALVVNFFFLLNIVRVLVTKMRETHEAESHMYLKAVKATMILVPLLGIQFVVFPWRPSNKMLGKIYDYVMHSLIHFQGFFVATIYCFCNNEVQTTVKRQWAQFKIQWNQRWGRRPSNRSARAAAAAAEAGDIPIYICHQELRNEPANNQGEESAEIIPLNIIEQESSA
T1 sequence (O60896 24-148 partner): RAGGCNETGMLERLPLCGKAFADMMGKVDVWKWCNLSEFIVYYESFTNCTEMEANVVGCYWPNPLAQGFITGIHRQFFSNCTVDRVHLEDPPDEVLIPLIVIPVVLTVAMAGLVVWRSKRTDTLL

[2] = Heat accelerated stability assay, 40° C., detection on 10 d and 20 d; format: physicochemical; conditions: 1 mg/mL, pH about 7.4, 40° C.
Protocol: The derivatives (1 mg/mL) were mixed with sodium dihydrogen phosphate (1.42 mg/mL) and dissolved in ultrapure water. After adjusting pH to about 7.4 with hydrochloric acid/sodium hydroxide, the solution was filtered into a sterilized vial in a clean bench using a 0.22 μm sterile filter. The vial was then capped and placed into the stability test chamber at 40° C. Detections were made on 10d and 20d, and during the assay changes in the characteristics and properties of the polypeptides were observed and recorded. The sample was then centrifuged for 3 min at 10000 rpm at 4° C., and the supernatant was transferred to a liquid phase sample vial for detecting the concentration and purity of the polypeptides using liquid phase chromatography described as below.
Flow rate: 1.0 mL/min; Autosampler temperature: 25° C.; Column temperature: 25° C.; Detection wavelength: 214 nm; Mobile phase A: 110 mM phosphate buffer (pH 5.8): ACN=90:10; Mobile phase B: ACN: IPA: H2O=85:5:10; and Gradient of elution listed in Table 6: […]

Compound	Relative activity [1]	EC50 [1]	Reduction in purity, 10 d [2]	Reduction in purity, 20 d [2]
CC[C@H](C)[C@H](NC(=O)[C@@H]1CCCN1C(=O)[C@H](CCCCN)NC(=O)[C@H](CC(C)C)NC(=O)[C@H](CC(N)=O)NC(=O)[C@H](C)NC(=O)[C@H](CO)NC(=O)[C@H](CO)NC(=O)[C@H](Cc1c[nH]cn1)NC(=O)[C@H](CCCNC(=N)N)NC(=O)[C@H](CC(C)C)NC(=O)[C@H](Cc1ccccc1)NC(=O)[C@H](CC(=O)O)NC(=O)[C@H](C)NC(=O)[C@H](CC(C)C)NC(=O)[C@H](CCCNC(=N)N)NC(=O)[C@H](CCC(N)=O)NC(=O)[C@@H](NC(=O)[C@H](C)NC(=O)[C@H](C)NC(=O)[C@@H](NC(=O)[C@H](CO)NC(=O)[C@H](CC(C)C)NC(=O)[C@H](CCC(N)=O)NC(=O)[C@H](CO)NC(=O)[C@H](C)NC(=O)CC[C@H](NC(=O)CCCCCCCCCCCCCCCCCCC(=O)O)C(=O)O)[C@@H](C)O)[C@@H](C)O)C(=O)N[C@@H](CC(C)C)C(=O)N1CCC[C@H]1C(=O)N1CCC[C@H]1C(=O)N[C@H](C(=O)N[C@@H](CC(N)=O)C(=O)N[C@H](C(=O)NCC(=O)N[C@@H](CO)C(=O)N[C@@H](CC(N)=O)C(=O)N[C@H](C(=O)N1C[C@H](O)C[C@H]1C(N)=O)[C@@H](C)O)C(C)C)[C@@H](C)O [M50] ({C20 diacid-γGlu}-ASQLSTAATQRLADFLRHSSANLKPILPPTNVGSNT[Hyp]-NH2)	186%	0.07 nM	7.76%	14.46%
CC[C@H](C)[C@H](NC(=O)[C@@H]1CCCN1C(=O)[C@H](CCCCN)NC(=O)[C@H](CC(C)C)NC(=O)[C@H](CC(N)=O)NC(=O)[C@H](Cc1c[nH]cn1)NC(=O)[C@H](CO)NC(=O)[C@H](CO)NC(=O)[C@H](Cc1c[nH]cn1)NC(=O)[C@H](CCCNC(=N)N)NC(=O)[C@H](CC(C)C)NC(=O)[C@H](Cc1ccccc1)NC(=O)[C@H](CC(=O)O)NC(=O)[C@H](C)NC(=O)[C@H](CC(C)C)NC(=O)[C@H](CCCNC(=N)N)NC(=O)[C@H](CCC(N)=O)NC(=O)[C@@H](NC(=O)[C@H](C)NC(=O)[C@H](C)NC(=O)[C@@H](NC(=O)[C@H](CO)NC(=O)[C@H](CC(C)C)NC(=O)[C@H](CCC(N)=O)NC(=O)[C@H](CO)NC(=O)[C@H](C)NC(=O)CC[C@H](NC(=O)CCCCCCCCCCCCCCCCCCC(=O)O)C(=O)O)[C@@H](C)O)[C@@H](C)O)C(=O)N[C@@H](CC(C)C)C(=O)N1CCC[C@H]1C(=O)N1CCC[C@H]1C(=O)N[C@H](C(=O)N[C@@H](CC(N)=O)C(=O)N[C@H](C(=O)NCC(=O)N[C@@H](CO)C(=O)N[C@@H](CC(N)=O)C(=O)N[C@H](C(=O)N1C[C@H](O)C[C@H]1C(N)=O)[C@@H](C)O)C(C)C)[C@@H](C)O [M52] ({C20 diacid-γGlu}-ASQLSTAATQRLADFLRHSSHNLKPILPPTNVGSNT[Hyp]-NH2)	178%	0.09 nM	7.91%	15.42%
CC[C@H](C)[C@H](NC(=O)[C@@H]1CCCN1C(=O)[C@H](CCCCN)NC(=O)[C@H](CC(C)C)NC(=O)[C@H](CCC(=O)O)NC(=O)[C@H](CCC(=O)O)NC(=O)[C@H](CO)NC(=O)[C@H](CO)NC(=O)[C@H](Cc1c[nH]cn1)NC(=O)[C@H](CCCNC(=N)N)NC(=O)[C@H](CC(C)C)NC(=O)[C@H](Cc1ccccc1)NC(=O)[C@H](CC(=O)O)NC(=O)[C@H](C)NC(=O)[C@H](CC(C)C)NC(=O)[C@H](CCCNC(=N)N)NC(=O)[C@H](CCC(N)=O)NC(=O)[C@@H](NC(=O)[C@H](C)NC(=O)[C@H](C)NC(=O)[C@@H](NC(=O)[C@H](CO)NC(=O)[C@H](CC(C)C)NC(=O)[C@H](CCC(N)=O)NC(=O)[C@H](CO)NC(=O)[C@H](C)NC(=O)CC[C@H](NC(=O)CCCCCCCCCCCCCCCCCCC(=O)O)C(=O)O)[C@@H](C)O)[C@@H](C)O)C(=O)N[C@@H](CC(C)C)C(=O)N1CCC[C@H]1C(=O)N1CCC[C@H]1C(=O)N[C@H](C(=O)N[C@@H](CC(N)=O)C(=O)N[C@H](C(=O)NCC(=O)N[C@@H](CO)C(=O)N[C@@H](CC(N)=O)C(=O)N[C@H](C(=O)N1C[C@H](O)C[C@H]1C(N)=O)[C@@H](C)O)C(C)C)[C@@H](C)O [M42] ({C20 diacid-γGlu}-ASQLSTAATQRLADFLRHSSEELKPILPPTNVGSNT[Hyp]-NH2)	32%	0.28 nM	4.8%	–
